Tests used:
[1] = target: T1, rat PMNL collagenolytic activity (PMNL collagenase) (Rattus norvegicus, UniProt O88766); test: Rat PMNL collagenolytic activity in vitro (14C-collagen gel lysis); type: biochemical; conditions: Table 2; PMNL extract (30 × 10^6 PMNLs per ml) + 20 ug/ml; control extract 39.0
T1 construct: An extract of PMNLs was prepared; from tissue; host or cells: extract of peritoneal exudate polymorphonuclear leucocytes of non-diabetic rats, elicited with glycogen
Protocol: To test the effect of physiologic levels of minocycline (the concentration in human serum, during a therapeutic regimen, is approximately 2 ug/ml; that in the gingival crevicular fluid is 4-5 times greater; Ciancio, et. al., 1980, J. Periodontol., 51, 531-534) on mammalian collagenolytic activity in vitro, peritonealexudate polymorphomuclear leucocytes (PMNLs) were collected from 15 mole (non-diabetic) rats 4 hours after I.P. injection of 0.15% glycogen. An extract of PMNLs was prepared, 250 μl aliquots of this extract were incubated with ^14 C-glycine labeled collagen fibrils for 14 hours at 35° C. (in the presence or absence of minocycline, or EDTA, or additional CaCl2), and collagenolytic activity was measured as described by Nicoll, et al., (Experientia., 37, 315-317).
The techniques used to measure the collagenolytic enzyme activity of gingival tissue in culture, and in polymorphonuclear leucocytes (PMNLs), are those described by Golub, et. al., (J. Dent. Res., 57, 520-525 (197)8) and Nicoll, et. al., (Experimentia, 37, 315-317, (1981)) with minor modifications.

[2] = test system: fetal rat bones (radii and ulnae) in organ culture; test: PTH-induced bone resorption in organ culture (45calcium release); type: cell-based
Protocol: The technique used to assess bone resorption is based on monitoring the release of radioactive calcium, previously incorporated by embryonic bones in vivo, during organ culture. Pregnant Sprague-Dawley rats were injected subcutaneously with 200 μCi of ^45 calcium chloride on the 18th day of gestation. The following day, the animals were killed, the fetuses removed, and the radii and ulnae dissected under aseptic conditions. […] The bones were then randomly distributed and each bone, either a radius or ulna, was incubated in 0.5 ml of culture media alone or in a media containing parathyroid hormone (PTH: human synthetic 1-34 peptide, Beckman Instruments, Inc., Palo Alto, California) added in a final concentration of 1.0 μg/ml; the experimental bones were incubated in the PTH containing medium to which was added different concentrations (0.2-300 μg/ml) of the antibiotics to be tested. The bones were cultured for 5 days, with the media being changed after day 2, and the incubation terminated. The bones were decalcified in 0.2 ml of 5% trichloroacetic acid and the ^45 calcium content of the residual bones and of the culture media was measured as described previously. (Werner and Raisz, Endocrinology, 90, 752 (1972 ) and Gomes, et. al., Calc. Tiss. Res., 19, 285 (1976)). The ^45 calcium released into the media was calculated as a percentage of the total radioactive calcium measured in the bones.

[3] = test system: periodontal disease in dogs; conditions: dogs on long-term therapy; cited from earlier work
[4] = test system: periodontal disease in patients; conditions: patients who did not respond to routine periodontal therapy; cited from earlier work
[5] = test system: rheumatoid arthritis; conditions: in vivo; cited from earlier work
[6] = test system: ^14 C-glycine labeled collagen fibrils; test: Lysis of 14C-collagen gel by control enzymes (no PMNL extract); type: biochemical; conditions: Table 1, 1 μg enzyme

T1 sequence (O88766 102-466): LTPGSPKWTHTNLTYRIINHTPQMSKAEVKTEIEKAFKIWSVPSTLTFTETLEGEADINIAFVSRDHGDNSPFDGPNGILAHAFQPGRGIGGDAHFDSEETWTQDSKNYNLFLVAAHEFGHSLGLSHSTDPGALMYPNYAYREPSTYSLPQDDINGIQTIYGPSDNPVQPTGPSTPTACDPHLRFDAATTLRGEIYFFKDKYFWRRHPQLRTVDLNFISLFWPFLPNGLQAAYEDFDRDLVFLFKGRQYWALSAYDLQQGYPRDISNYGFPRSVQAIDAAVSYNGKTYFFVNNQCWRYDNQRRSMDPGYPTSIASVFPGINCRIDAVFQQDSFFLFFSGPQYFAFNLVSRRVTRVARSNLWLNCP

CN(C)[C@@H]1C(=O)C(C(N)=O)=C(O)[C@@]2(O)C(=O)C3=C(O)c4c(O)cccc4[C@@](C)(O)[C@H]3C[C@@H]12 [tetracycline, Tetracycline]
Collagenolytic Activity: % ^14 C-collagen gel lyzed [1]: 2.0% | ^45 Calcium in Fetal Bone Released into Media (%) after 2 days incubation ([2]; Table 4, first column, PTH + 0.2 μg/ml): 58.4 ± 1.3% | ^45 Calcium in Fetal Bone Released into Media (%) after 2 days incubation ([2]; Table 4, first column, PTH + 2.0 μg/ml): 59.9 ± 1.5% | ^45 Calcium in Fetal Bone Released into Media (%) after 2 days incubation ([2]; Table 4, first column, PTH + 20 μg/ml): 45.0 ± 0.7% | ^45 Calcium in Fetal Bone Released into Media (%) after 2 days incubation ([2]; Table 4, first column, PTH + 200 μg/ml): 14.4 ± 0.4% | ^45 Calcium in Fetal Bone Released into Media (%) after 2 days incubation ([2]; Table 4, second column, PTH + 0.2 μg/ml): 93.0 ± 1.7% | ^45 Calcium in Fetal Bone Released into Media (%) after 2 days incubation ([2]; Table 4, second column, PTH + 2.0 μg/ml): 97.2 ± 0.8% | ^45 Calcium in Fetal Bone Released into Media (%) after 2 days incubation ([2]; Table 4, second column, PTH + 20 μg/ml): 69.4 ± 3.5% | ^45 Calcium in Fetal Bone Released into Media (%) after 2 days incubation ([2]; Table 4, second column, PTH + 200 μg/ml): 19.8 ± 0.5% | effect on PTH-enhanced bone resorption, in words ([2]; concentrations 0.2-300 μg/ml): inhibited bone resorption in a dose responsive manner | periodontal disease [3]: significant improvement | clinical benefit of long-term use [4]: clinically beneficial | treatment of rheumatoid arthritis [5]: effective

B1: Trypsin: protease control for non-specific proteolysis of the collagen substrate (protein, UniProt P00760 24-246, looked up)
Serine protease 1: IVGGYTCGANTVPYQVSLNSGYHFCGGSLINSQWVVSAAHCYKSGIQVRLGEDNINVVEGNEQFISASKSIVHPSYNSNTLNNDIMLIKLKSAASLNSRVASISLPTSCASAGTQCLISGWGNTKSSGTSYPDVLKCLKAPILSDSSCKSAYPGQITSNMFCAGYLEGGKDSCQGDSGGPVVCSGKLQGIVSWGSGCAQKNKPGVYTKVCNYVSWIKQTIASN
Collagenolytic Activity: % ^14 C-collagen gel lysed [6]: 2.6%

Reference: patent US4666897A, “Inhibition of mammalian collagenolytic enzymes by tetracyclines” (Research Foundation of State University, priority 1983, dated 1987)
